Broadly, the EC50 is the midpoint of the concentration-response curve.

Assay [1] deals with Human colon cancer cells (WiDr). The experiment in a line: Checkpoint escape effect in WiDr cells + gemcitabine (phosphorylated histone H3-positive cells). The class given is cell-based. Particulars: gemcitabine 100 nM for 24 hours, then test compound with nocodazole for 8 hours. An excerpt:
Pharmaceutical Text 3 (Method of Determining Drug Potency in Cells (Checkpoint-Removing Effect))
Fetal bovine serum (FBS) was obtained from Morgate; DMEM was from Invitrogen; gemcitabine was from Nippon Eli Lilly; nocodazole and 4′,6-diamidino-2-phenylindole were from Sigma; rabbit anti-phosphorylated histone H3 antibody was from Upstate; and fluorescence-labeled (Alexa Fluor 488) anti-rabbit IgG antibody was from Molecular Probe.
Human colon cancer cells (WiDr) were obtained from American Type Culture Collection (ATCC).
The cells were suspended in DMEM containing 10% FBS, and the cell suspension was applied to a poly-D-lysine-coated 96-well plastic plate (bought from Becton Dickinson) in an amount of 2000 cells/100 μL/well, in which the cells were incubated overnight in 5% CO2-95% air at 37° C. […] Next, this was washed with PBS, and a solution containing 4′,6-diamidino-2-phenylindole that had been diluted with 1% BSA/PBS to have a concentration 10 μg/mL and a fluorescence-labeled (Alexa Fluor 488) anti-rabbit IgG antibody that had been diluted 250-fold was added to it in an amount 50 μL/well, and reacted in a dark place at room temperature for 60 minutes. Finally, this was washed with PBS, and its fluorescence intensity was determined to calculate the ratio of the phosphorylated histone H3-positive cells (cells that had been in a cell division cycle through removal of checkpoint). […]

For assay [2], the system named is Human non-small-cell lung cancer cells (NCI-H1299). The experiment in a line: Radiation (X-ray) sensitizing effect, DNA fragmentation (subG1, FACS) in NCI-H1299 cells. The class given is cell-based. An excerpt:
Pharmaceutical Test 5 (Method of Determining Drug Potency with Cells (Radiation (X-Ray) Sensitizing Effect))
Fetal bovine serum (FBS) was gotten from Morgate; RPMI 1640 medium and 0.25% trypsin EDTA were from Invitrogen; cycle test plus DNA reagent kit was from Becton Dickinson; and nylon net filter was from Millipore.
Human non-small-cell lung cancer cells (NCI-H1299) were gotten from ATCC.
NCI-H1299 cells were suspended in 10% FBS-added RPMI 1640 medium, and the cell suspension was applied to a 6-well Nunclondelta-processed plastic plate bought from Nunc, in an amount of 100,000 cell/2 ml/well, and incubated overnight in 5% CO2-95% air at 37° C. Using Softex's M-150WE, the cells were irradiated with 5000 R X-rays, and then further incubated in 5% CO2-95% air at 37° C. for 16 hours. A test compound was stepwise diluted with DMSO, and applied to a plate with the X-ray-processed cells sowed thereon, in an amount of 2 μL. This was incubated in 5% CO2-95% air at 37° C. for 8 hours, and then the culture was partly taken out. 0.25% trypsin was added to the cells remaining on the plate, in an amount of 600 μL, and statically kept at room temperature to prepare a single cell suspension. […] Using Becton Dickinson's FACS Calibur, the DNA amount in each cell was quantitatively determined according to a FACS process, and the ratio of the cells having caused DNA fragmentation was determined.

For the compound `C=CCn1c(=O)c2cnc(Nc3ccc(N4CCN(C)CC4)cc3)nc2n1-c1cccc(C(C)(C)O)n1` [Example 53, 2-allyl-1-[6-(1-hydroxy-1-methylethyl)pyridin-2-yl]-6-{[4-(4-methylpiperazin-1-yl)phenyl]amino}-1,2-dihydro-3H-pyrazolo[3,4-d]pyrimidin-3-one], the EC50 in assay [1] was determined as 0.21 µM. For the same compound, the “DNA Fragmentation-Inducing Effect (H1299) (subG1, %)” value is 54.8% in assay [2] (X-ray (5000 R, 16 hours before) + compound for 8 hours) and 3.9% in assay [2] (compound alone, without X-ray, 8 hours).
